The text below walks through data of ChEMBL document CHEMBL5584280, “Optimization of Novel Pyrido-pyridazinone Derivatives as FER Tyrosine Kinase Inhibitors, Leading to the Potent DS08701581” (ACS Med Chem Lett, 2024).

The term GI50 denotes the concentration giving 50% growth inhibition. By solubility is commonly meant the dissolved amount per volume that the medium holds. Broadly, the clearance is the rate of elimination divided by the concentration. A high value points to a high capacity for elimination. The term AUC denotes concentration integrated over time. Lower therefore signals low exposure. Usually Cmax stands for the highest concentration seen after dosing. By bioavailability is commonly meant the share of a dose that reaches the circulation, judged against a reference dose that is usually intravenous. A higher bioavailability goes with good availability. Broadly, the inhibition is the percentage by which the read-out fell short of the control. Broadly, the pIC50 is the negative decadic logarithm of the IC50, by convention in mol/L.

Data set [1] deals with BaF3. Kind of data set: Inhibition of cell viability in mouse BaF3 cells expressing FER incubated for 3 days by Cell Titer Glo assay. The note with it: BaF3, 72 h, time 3 day. Type of data set: functional.
Data set [2] concerns BaF3. In words: Inhibition of cell viability in mouse BaF3 cells incubated for 3 days by Cell Titer Glo assay. Type of data set: functional. As to conditions: BaF3, 72 h, time 3 day.
The nature of data set [3]: Metabolic stability in CD-1 mouse liver microsomes assessed as compound remaining at 1 uM incubated for 30 mins by LC-MS/MS analysis. It is filed as ADME, Microsome. As to conditions: read-out: Stability. A general note: Liver microsomes are a subcellular fraction often used to study metabolism.
Data set [4] can be described thus: Solubility of compound in buffer at pH 6.8 incubated for 4 hrs by HPLC-UV analysis. Type of data set: physicochemical.
Data set [5] is described as follows: Solubility of compound in FaSSIF incubated for 4 hrs by HPLC-UV analysis. It is filed as ADME.
Data set [6] is described as follows: Protein binding in BALB/c mouse serum at 10 ug/ml incubated for 4 hrs by equilibrium dialysis. The note with it: at 10 µg/mL, read-out: PB (converted). Type of data set: ADME, cell-free. (In equilibrium dialysis free small molecules cross a membrane that holds back macromolecules.)
Data set [7] is described as follows: Permeability co-efficient of compound at 5 uM incubated for 4 hrs by PAMPA. It is filed as ADME. The note with it: read-out: Peff. A general note: PAMPA measures passive passage across an artificial lipid membrane.
The nature of data set [8]: Total plasma clearance in BALB/cAnNCrlCrlj mouse at 1 mg/kg, iv. Type of data set: ADME, organism-based.
Data set [9] can be described thus: AUC in BALB/cAnNCrlCrlj mouse at 10 mg/kg, po. Type of data set: ADME, organism-based. The note with it: in vivo.
Data set [10] is described as follows: Cmax in BALB/cAnNCrlCrlj mouse at 10 mg/kg, po. As to conditions: in vivo. It is filed as ADME, organism-based.
A short description of data set [11]: Oral bioavailability in BALB/cAnNCrlCrlj mouse at 10 mg/kg. As to conditions: in vivo. Type of data set: ADME, organism-based.
For data set [12], the target named is ALK tyrosine kinase receptor (Homo sapiens) (UniProt Q9UM73). Kind of data set: Inhibition of ALK (unknown origin) at 200 nM in presence of ATP by kinase profiling analysis relative to control.
ALK tyrosine kinase receptor (Homo sapiens), sequence (Q9UM73 19-1620 limits assumed): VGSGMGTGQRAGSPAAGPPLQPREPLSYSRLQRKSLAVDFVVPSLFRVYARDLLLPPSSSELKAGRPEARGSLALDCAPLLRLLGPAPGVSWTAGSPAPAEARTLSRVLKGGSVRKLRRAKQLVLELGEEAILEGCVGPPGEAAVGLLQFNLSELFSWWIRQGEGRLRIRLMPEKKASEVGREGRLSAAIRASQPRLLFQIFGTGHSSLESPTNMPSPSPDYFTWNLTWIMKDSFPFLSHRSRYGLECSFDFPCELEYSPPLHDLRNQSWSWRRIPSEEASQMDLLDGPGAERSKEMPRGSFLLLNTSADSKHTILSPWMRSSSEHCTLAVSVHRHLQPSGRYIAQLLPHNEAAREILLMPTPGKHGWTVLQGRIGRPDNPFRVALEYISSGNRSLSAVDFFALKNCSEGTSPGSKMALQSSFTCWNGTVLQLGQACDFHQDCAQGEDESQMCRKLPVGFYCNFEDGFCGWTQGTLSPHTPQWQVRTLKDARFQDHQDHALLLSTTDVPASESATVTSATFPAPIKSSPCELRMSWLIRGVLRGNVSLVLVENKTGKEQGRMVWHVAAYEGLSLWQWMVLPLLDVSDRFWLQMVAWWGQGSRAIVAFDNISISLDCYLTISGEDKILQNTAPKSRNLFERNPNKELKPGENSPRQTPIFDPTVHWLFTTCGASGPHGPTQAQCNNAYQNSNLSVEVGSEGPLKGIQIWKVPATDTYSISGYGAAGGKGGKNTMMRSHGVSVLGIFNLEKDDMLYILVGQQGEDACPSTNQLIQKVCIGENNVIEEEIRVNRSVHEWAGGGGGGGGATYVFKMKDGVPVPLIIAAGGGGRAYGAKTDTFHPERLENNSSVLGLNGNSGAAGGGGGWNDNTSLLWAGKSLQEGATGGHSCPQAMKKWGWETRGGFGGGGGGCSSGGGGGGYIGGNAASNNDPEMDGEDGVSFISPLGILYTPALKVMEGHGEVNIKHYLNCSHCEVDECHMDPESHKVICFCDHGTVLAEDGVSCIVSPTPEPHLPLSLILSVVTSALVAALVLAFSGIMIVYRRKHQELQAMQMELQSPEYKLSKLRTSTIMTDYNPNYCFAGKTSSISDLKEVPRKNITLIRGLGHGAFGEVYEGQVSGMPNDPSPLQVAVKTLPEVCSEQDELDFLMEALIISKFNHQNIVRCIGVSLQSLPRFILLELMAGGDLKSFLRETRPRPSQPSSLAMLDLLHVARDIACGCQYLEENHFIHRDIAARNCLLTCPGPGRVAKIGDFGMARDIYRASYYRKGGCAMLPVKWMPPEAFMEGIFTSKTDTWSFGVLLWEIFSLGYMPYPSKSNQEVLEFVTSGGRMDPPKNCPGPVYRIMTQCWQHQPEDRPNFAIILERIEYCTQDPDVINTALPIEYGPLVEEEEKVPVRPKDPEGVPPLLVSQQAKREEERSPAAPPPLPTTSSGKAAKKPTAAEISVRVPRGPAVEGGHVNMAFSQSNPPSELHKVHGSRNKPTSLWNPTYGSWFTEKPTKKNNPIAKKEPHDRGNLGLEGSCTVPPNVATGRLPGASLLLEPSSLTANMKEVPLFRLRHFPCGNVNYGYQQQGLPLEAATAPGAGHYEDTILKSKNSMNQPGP
In data set [13] the target is Receptor-type tyrosine-protein kinase FLT3 (Homo sapiens) (UniProt P36888). In words: Inhibition of FLT3 (unknown origin) at 200 nM in presence of ATP by kinase profiling analysis relative to control.
Receptor-type tyrosine-protein kinase FLT3 (Homo sapiens), sequence (P36888 whole entry): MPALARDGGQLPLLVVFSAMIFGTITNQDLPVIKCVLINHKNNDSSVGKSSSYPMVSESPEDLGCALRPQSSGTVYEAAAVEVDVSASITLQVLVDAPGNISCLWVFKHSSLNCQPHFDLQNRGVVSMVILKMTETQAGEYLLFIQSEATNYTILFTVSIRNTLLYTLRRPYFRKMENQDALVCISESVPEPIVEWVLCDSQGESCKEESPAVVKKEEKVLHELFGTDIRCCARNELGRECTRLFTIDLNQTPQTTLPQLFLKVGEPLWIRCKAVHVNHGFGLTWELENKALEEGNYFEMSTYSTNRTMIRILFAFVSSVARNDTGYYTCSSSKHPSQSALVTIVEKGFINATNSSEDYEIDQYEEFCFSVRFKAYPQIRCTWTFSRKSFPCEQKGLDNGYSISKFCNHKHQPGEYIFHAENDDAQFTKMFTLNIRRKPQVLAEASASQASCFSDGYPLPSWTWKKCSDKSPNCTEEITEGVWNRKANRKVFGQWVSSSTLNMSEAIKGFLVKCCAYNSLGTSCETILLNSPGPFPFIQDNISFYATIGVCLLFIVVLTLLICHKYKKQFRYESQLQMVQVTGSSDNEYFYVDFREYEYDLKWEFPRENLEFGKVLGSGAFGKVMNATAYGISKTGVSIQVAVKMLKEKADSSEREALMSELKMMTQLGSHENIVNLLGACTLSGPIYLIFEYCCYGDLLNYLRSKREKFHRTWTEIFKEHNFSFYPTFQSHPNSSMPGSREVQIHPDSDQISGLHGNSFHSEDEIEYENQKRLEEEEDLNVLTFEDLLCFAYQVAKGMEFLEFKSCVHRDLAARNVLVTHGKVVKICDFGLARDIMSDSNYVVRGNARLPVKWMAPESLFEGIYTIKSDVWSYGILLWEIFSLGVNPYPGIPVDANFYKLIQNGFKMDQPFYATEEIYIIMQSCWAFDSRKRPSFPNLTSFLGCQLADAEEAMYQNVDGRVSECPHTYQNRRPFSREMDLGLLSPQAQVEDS
For data set [14], the target named is Protein-tyrosine kinase 2-beta (Homo sapiens) (UniProt Q14289). Kind of data set: Inhibition of PTK2B (unknown origin) at 200 nM in presence of ATP by kinase profiling analysis relative to control.
Protein-tyrosine kinase 2-beta (Homo sapiens), sequence (Q14289 whole entry, looked up): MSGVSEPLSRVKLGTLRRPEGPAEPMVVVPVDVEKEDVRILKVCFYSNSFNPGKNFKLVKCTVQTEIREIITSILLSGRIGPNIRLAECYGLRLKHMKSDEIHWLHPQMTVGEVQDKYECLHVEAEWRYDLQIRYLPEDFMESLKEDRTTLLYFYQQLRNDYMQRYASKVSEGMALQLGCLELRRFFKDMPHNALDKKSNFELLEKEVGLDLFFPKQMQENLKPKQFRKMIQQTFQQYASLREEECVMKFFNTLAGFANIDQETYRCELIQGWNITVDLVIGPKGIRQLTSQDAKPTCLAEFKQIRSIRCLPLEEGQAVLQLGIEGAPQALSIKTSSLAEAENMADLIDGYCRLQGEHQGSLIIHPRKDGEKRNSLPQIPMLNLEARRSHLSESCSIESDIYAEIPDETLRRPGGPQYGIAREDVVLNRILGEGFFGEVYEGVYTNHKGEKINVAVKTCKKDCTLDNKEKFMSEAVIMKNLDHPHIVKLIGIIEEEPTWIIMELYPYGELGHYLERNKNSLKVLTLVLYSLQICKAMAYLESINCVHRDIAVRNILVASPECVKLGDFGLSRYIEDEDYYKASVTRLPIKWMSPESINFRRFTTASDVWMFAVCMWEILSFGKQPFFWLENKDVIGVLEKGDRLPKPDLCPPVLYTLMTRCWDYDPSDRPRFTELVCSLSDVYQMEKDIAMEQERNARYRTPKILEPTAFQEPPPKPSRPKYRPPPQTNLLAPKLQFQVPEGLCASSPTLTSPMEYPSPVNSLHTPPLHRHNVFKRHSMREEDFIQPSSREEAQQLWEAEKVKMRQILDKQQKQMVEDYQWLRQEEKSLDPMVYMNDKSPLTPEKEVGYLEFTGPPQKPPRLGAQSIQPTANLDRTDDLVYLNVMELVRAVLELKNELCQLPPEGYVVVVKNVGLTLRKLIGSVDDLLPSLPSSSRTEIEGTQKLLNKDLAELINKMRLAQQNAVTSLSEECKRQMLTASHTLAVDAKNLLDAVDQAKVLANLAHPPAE
In data set [15] the target is Tyrosine-protein kinase SYK (Homo sapiens) (UniProt P43405). Kind of data set: Inhibition of SYK (unknown origin) at 200 nM in presence of ATP by kinase profiling analysis relative to control.
For data set [16], the target named is Serine/threonine-protein kinase Chk2 (Homo sapiens) (UniProt O96017). Kind of data set: Inhibition of CHEK2 (unknown origin) at 200 nM in presence of ATP by kinase profiling analysis relative to control.
Serine/threonine-protein kinase Chk2 (Homo sapiens), sequence (O96017 whole entry): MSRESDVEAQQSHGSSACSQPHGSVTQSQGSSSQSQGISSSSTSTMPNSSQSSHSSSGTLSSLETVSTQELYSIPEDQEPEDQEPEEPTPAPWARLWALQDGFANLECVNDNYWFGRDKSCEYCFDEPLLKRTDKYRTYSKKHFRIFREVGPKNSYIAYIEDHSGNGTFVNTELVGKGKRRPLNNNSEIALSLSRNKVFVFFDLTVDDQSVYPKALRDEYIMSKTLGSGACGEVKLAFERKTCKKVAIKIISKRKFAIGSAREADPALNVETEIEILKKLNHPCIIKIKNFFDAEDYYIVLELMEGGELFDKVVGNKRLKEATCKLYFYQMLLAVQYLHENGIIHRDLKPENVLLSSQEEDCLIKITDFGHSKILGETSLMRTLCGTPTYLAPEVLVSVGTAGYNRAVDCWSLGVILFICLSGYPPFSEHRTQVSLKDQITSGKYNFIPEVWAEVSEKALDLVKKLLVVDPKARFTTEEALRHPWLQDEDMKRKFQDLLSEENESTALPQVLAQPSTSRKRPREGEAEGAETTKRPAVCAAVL
Data set [17] deals with T1, Testis-specific serine/threonine-protein kinase 1 (Homo sapiens) (UniProt Q9BXA7).
T1 sequence (whole entry): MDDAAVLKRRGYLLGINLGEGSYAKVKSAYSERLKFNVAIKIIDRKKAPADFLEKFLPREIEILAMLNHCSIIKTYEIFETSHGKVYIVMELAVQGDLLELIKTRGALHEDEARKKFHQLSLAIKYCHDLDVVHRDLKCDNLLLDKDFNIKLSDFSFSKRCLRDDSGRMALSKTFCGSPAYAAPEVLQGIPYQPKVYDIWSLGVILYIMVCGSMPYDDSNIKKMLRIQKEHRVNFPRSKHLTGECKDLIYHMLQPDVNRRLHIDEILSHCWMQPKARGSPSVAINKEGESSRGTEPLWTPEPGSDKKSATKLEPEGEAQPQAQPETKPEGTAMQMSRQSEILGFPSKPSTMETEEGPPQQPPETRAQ
In words: Inhibition of TSSK1B (unknown origin) at 200 nM in presence of ATP by kinase profiling analysis relative to control.

Data set [18] addresses Leukocyte tyrosine kinase receptor (Homo sapiens) (UniProt P29376). In words: Inhibition of LTK (unknown origin) at 200 nM in presence of ATP by kinase profiling analysis relative to control.
Data set [19] relates to BaF3. Kind of data set: Antitumor activity against […] mouse BaF3 cells expressing FER xenografted in BALB/cAJcl-nu/nu mouse administered orally once a day for 4 days. It is filed as functional, cell-based. As to conditions: dose 6.25-100 mg/kg, route po, time 4.0 day.
Data set [20] is described as follows: Toxicity in BALB/cAJcl-nu/nu mouse xenografted with […] mouse BaF3 cells expressing FER at 6.25 to 100 mg/kg, po qd for 10 days. It is filed as organism-based. The note with it: in vivo, 240 h, dose 6.25-100 mg/kg, time 10 day.
In data set [21] the target is Tyrosine-protein kinase Fer (Homo sapiens, UniProt P16591). Kind of data set: Inhibition of N-terminal His-tagged recombinant human FER using FL-Peptide22 as substrate incubated for 90 mins in presence of ATP.
Tyrosine-protein kinase Fer, sequence (P16591 whole entry): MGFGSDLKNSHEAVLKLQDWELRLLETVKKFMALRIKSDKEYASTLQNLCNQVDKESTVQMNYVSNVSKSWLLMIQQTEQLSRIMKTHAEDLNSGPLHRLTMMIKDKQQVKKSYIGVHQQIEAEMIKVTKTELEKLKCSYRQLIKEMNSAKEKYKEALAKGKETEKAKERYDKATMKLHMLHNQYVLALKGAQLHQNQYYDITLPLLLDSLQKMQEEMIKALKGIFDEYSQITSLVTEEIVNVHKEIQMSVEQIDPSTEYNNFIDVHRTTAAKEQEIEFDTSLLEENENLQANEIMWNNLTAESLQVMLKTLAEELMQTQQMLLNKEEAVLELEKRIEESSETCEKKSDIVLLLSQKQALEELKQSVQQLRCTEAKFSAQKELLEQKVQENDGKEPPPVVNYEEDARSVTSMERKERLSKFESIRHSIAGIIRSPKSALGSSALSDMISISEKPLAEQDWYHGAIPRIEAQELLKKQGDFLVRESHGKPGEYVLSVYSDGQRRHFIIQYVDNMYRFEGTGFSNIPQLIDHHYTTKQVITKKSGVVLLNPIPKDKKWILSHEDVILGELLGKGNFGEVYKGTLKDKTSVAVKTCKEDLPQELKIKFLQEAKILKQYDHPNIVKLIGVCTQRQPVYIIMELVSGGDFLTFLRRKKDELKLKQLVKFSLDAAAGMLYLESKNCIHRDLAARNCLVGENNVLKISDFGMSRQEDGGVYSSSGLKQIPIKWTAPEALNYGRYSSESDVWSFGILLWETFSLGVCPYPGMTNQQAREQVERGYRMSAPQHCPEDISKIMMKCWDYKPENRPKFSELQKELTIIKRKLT
Data set [22] concerns the target Macrophage colony-stimulating factor 1 receptor (Homo sapiens) (UniProt P07333). Kind of data set: Inhibition of CSF1R (unknown origin) at 200 nM in presence of ATP by kinase profiling analysis relative to control.
The target in data set [23] is Mast/stem cell growth factor receptor Kit (Homo sapiens) (UniProt P10721). In words: Inhibition of KIT (unknown origin) at 200 nM in presence of ATP by kinase profiling analysis relative to control.
Data set [24] has as its target Proto-oncogene tyrosine-protein kinase ROS (Homo sapiens) (UniProt P08922). In words: Inhibition of ROS1 (unknown origin) at 200 nM in presence of ATP by kinase profiling analysis relative to control.
The species entered for the next data set is Homo sapiens. Kind of data set: Inhibition of NTRK1 (unknown origin) at 200 nM in presence of ATP by kinase profiling analysis relative to control.
The target in data set [25] is Cyclin-dependent kinase 2 (Homo sapiens) (UniProt P24941). Kind of data set: Inhibition of CDK2 (unknown origin) at 200 nM in presence of ATP by kinase profiling analysis relative to control.
The target of data set [26] is Mitogen-activated protein kinase kinase kinase kinase 4 (Homo sapiens) (UniProt O95819). Kind of data set: Inhibition of MAP4K4 (unknown origin) at 200 nM in presence of ATP by kinase profiling analysis relative to control.
The nature of data set [27]: Toxicity in BALB/cAJcl-nu/nu mouse xenografted with […] mouse BaF3 cells expressing FER at 100 mg/kg, po qd for 10 days. Type of data set: organism-based. As to conditions: in vivo, 240 h, time 10 day.

pIC50: −log10 of the molar value. In brackets after ≈: the same amount, converted by molar mass.

Consider `C[C@@H]1CN(c2cccc(Nc3nc(N[C@@H]4CCCC[C@@H]4N)c(C#N)c4cn[nH]c(=O)c34)c2)C[C@H](C)O1`, for which the GI50 with BaF3 [1] stood at 0.00067 µM; with BaF3 [2] it was 1 µM. In addition, the remaining at 0.5 h, 1 µM in [3] came to 85%. The solubility at 4 h in data set [4] is 6.7 µg/mL (≈ 13.7 µM); in data set [5] it was 30 µg/mL (≈ 61.4 µM). In addition, the fraction unbound at 4 h, 10 ug/ml in [6] is 0.03. Besides, the Papp at 4 h, 5 µM in data set [7] is more than 50 ×10⁻⁶ cm/s. The molecule also yielded a clearance in [8] of 13 mL/min/kg. Also, the AUC in data set [9] was 8200 ng·h/mL. The Cmax in data set [10] was found to be 630 ng/mL. This molecule also displayed a bioavailability in data set [11] of 65%. Also, the inhibition in data set [12], in [13], in data set [14], in data set [15], in [16] and in [17] was more than 90% throughout. In addition, the inhibition in data set [18] was more than 90%. The Activity result in the data set with BaF3 [19] is “Dose-Dependent Effect”; in data set [20], “Non-Toxic”.
Regarding `CN1CCN(c2cccc(Nc3nc(NC4CCCCC4N)c(F)c4cn[nH]c(=O)c34)c2)CC1` (racemic), the figures for the concentration for 50% growth inhibition (GI50) in the data set with BaF3 [1] and in the data set with BaF3 [2] were 0.076 µM and 0.63 µM, respectively.
Taken in the same sequence, the figures for `Cc1cccc(Nc2nc(NC3CCCCC3N)c(F)c3cn[nH]c(=O)c23)c1` (racemic) were 0.03 µM and 1.23 µM.
Taken in the same sequence, the figures for `N#Cc1c(N[C@@H]2CCCC[C@@H]2N)nc(Nc2cccc(N3CC4(COC4)C3)c2)c2c(=O)[nH]ncc12` were 0.00036 µM and 0.362 µM.
Turning to `N#Cc1c(N[C@@H]2CCCC[C@@H]2N)nc(Nc2cccc(N3CCOCC3)c2)c2c(=O)[nH]ncc12`, the values for the GI50 in the data set on BaF3 [1] and with BaF3 [2] were 0.0012 µM and 0.31 µM, respectively.
With `Cc1cccc(Nc2nc(NC3CCCCC3N)c(C#N)c3cn[nH]c(=O)c23)c1` (centres undefined), the negative logarithm of the IC50 (pIC50) in [21] was 9.31. Moreover, the concentration for 50% growth inhibition (GI50) stood at 0.0019 µM in the data set with BaF3 [1] and 0.22 µM in the data set on BaF3 [2]. In addition, the remaining at 0.5 h, 1 µM in data set [3] is 96%. Besides, the solubility at 4 h was found to be 0.9 µg/mL (≈ 2.31 µM) in [4] and 2.1 µg/mL (≈ 5.39 µM) in data set [5]. In [6], the fraction unbound at 4 h, 10 ug/ml is 0.01. In addition, in data set [7], the Papp at 4 h, 5 µM is more than 50 ×10⁻⁶ cm/s. In data set [8], this molecule yielded a clearance of 12 mL/min/kg. This molecule also came in with an AUC in data set [9] of 4800 ng·h/mL. This molecule yielded a Cmax in data set [10] of 360 ng/mL. The molecule also gave a bioavailability in [11] of 34%. Further, the inhibition in data set [12], in data set [13], in [14], in data set [15], in [16] and in [17] was more than 90% throughout. Further, the inhibition (in [22]; in data set [23]; in [24]; in the data set filed under Homo sapiens; in [25]; in data set [26]) was more than 90% throughout. The Activity entry in data set [27] was “Toxic”.
Consider `CCOc1cccc(Nc2nc(NC3CCCCC3N)c(F)c3cn[nH]c(=O)c23)c1` (racemic), for which the 50% growth inhibitory concentration (GI50) in the data set with BaF3 [1] amounted to 0.05 µM; in the data set on BaF3 [2], 1.6 µM.
Taken in the same sequence, the figures for `N[C@H]1CCCC[C@H]1Nc1nc(Nc2cccc(N3CCOCC3)c2)c2c(=O)[nH]ncc2c1F` were 0.0047 µM and 1.2 µM.
Taken in the same sequence, the figures for `Cn1cc(Nc2nc(NC3CCCCC3N)c(F)c3cn[nH]c(=O)c23)cn1` (racemic) were 0.057 µM and 0.34 µM.
